# Source: patent US12371464B2, “Polypeptides and uses thereof” (MEDIMMUNE LIMITED, priority 2020, dated 2025)
# Numbered stars: 1 amine (or outer) side, 2 acyl side, 3 side chain; on linkers, the order of the positions; unused ones are H or OH. Bridge positions count the residues as written; N and C are the ends. Square brackets hold non-standard residues; d marks the D form. Side chains are listed from the residue outwards. Peptide text beside a SMILES is read from it. * marks the point of attachment. C18 diacid = O=C(O)CCCCCCCCCCCCCCCCC(=O)*; γGlu = O=C(O)[C@H](CCC(=O)[*:2])N[*:1]; αMeF = C[C@](N)(Cc1ccccc1)C(=O)O; Aib = CC(C)(N)C(=O)O
# What was measured:
# lean rats = assay: Rat acute food intake study; type: in vivo, Sprague Dawley rats; conditions: 20 nmol/kg subcutaneously
# Procedure: Male Sprague Dawley rats were obtained from Taconic Denmark, ApS at approximately 7 weeks of age. . . . Rats were implanted with a microchip for identification, housed 4/cage with enrichment, free access to food and water, and allowed one week acclimatisation while non-invasive characterization was performed. Rats were on a 12:12 light:dark cycle that switches at 1 pm:1 am. Food intake was monitored via the HM2 system (Lafayette Instrument) that allows for monitoring in a home cage. As each rat enters an access tunnel to feed, an IR beam is broken, and the implanted microchip is read. Resulting changes to food weight is then assigned to the specific animal. Social order has shown no impact to overall feeding patterns and amounts.
# Rats were sorted into groups based on Day-1 body weight and 24-hour accumulated food intake (n=7 per group). On Day 0 rats were weighed, then fasted for 6 hours. Thirty (30) minutes prior to the reintroduction of food, rats were dosed subcutaneously (5 ml/kg) with 20 nmol/kg of test compound or 60 nmol/kg peptide 1 (pramlintide) diluted in an appropriate vehicle, after which food was returned, and lights went out. Automated food intake was monitored for the following 3 days, and rats were weighed once per day.
# Food intake per rat was batched into 1-hour intervals and integrated into Gubra's GubraView data management system. Discrete food intake data was exported into MS Excel from which cumulative food intake data was generated. Cumulative food intake data was then transposed into GraphPad Prism (v8.0.1) for analysis of dark period feeding
# [1] = Thioflavin T fibrillation assay; type: physicochemical; conditions: for Time taken to detect increase in fluorescence intensity: 1 mg/mL in 25 mM sodium acetate buffer pH 4.0, 37° C., 6 days, orbital shaking, >144 h = no increase
# In short: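 Peptides at 1 mg/mL in 25 mM sodium acetate pH 4.0 were mixed with ThT (0.25 mM stock) and held 6 days at 37 °C with intermittent orbital shaking at 500–750 rpm. Fluorescence (ex 444/em 480 nm) was read every 30 min, with buffer baseline correction and 5 replicates. Value: mean time to a detectable fluorescence increase.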
Time taken to detect increase in fluorescence intensity [1] [h],Structure (SMILES),Cummulative food intake (% vehicle treated intake) At 12 h (lean rats) [% vehicle treated intake],also measured
,"CC[C@H](C)[C@H](NC(=O)[C@@H]1CCCN1C(=O)CNC(=O)[C@H](Cc1ccccc1)NC(=O)[C@H](CC(N)=O)NC(=O)C(C)(C)NC(=O)[C@H](CO)NC(=O)[C@H](CO)NC(=O)[C@H](Cc1c[nH]cn1)NC(=O)[C@@H](NC(=O)[C@H](CC(C)C)NC(=O)[C@H](Cc1ccccc1)NC(=O)[C@H](CCC(=O)O)NC(=O)[C@H](C)NC(=O)[C@H](CC(C)C)NC(=O)[C@H](CCCNC(=N)N)NC(=O)[C@H](CCC(N)=O)NC(=O)[C@@H](NC(=O)[C@H](C)NC(=O)[C@@H]1CSSC[C@H](NC(=O)[C@H](CCCCN)NC(=O)[C@@H](N)CCCCNC(=O)CC[C@H](NC(=O)CCCCCCCCCCCCCCCCC(=O)O)C(=O)O)C(=O)N[C@@H](CC(N)=O)C(=O)N[C@@H]([C@@H](C)O)C(=O)N[C@@H](C)C(=O)N[C@@H]([C@@H](C)O)C(=O)N1)[C@@H](C)O)C(C)C)C(=O)N[C@@H](CC(C)C)C(=O)N1CCC[C@H]1C(=O)N1CCC[C@H]1C(=O)N[C@H](C(=O)N[C@@H](CC(N)=O)C(=O)N[C@H](C(=O)NCC(=O)N[C@@H](CO)C(=O)N[C@@H](CC(N)=O)C(=O)N[C@H](C(=O)N[C@@H](Cc1ccc(O)cc1)C(N)=O)[C@@H](C)O)C(C)C)[C@@H](C)O [Peptide 38, K(γE-C18diacid)K[CNTATC]ATQRLAEFLVHSS(Aib)NFGPILPPTNVGSNTY-amide] (H-K([γGlu-C18 diacid])KCNTATCATQRLAEFLVHSS[Aib]NFGPILPPTNVGSNTY-NH2; disulfide 3-8; N-terminus assumed)",6.9,Cummulative food intake (% vehicle treated intake) At 24 h (lean rats; at 24 h): 5.5 % vehicle treated intake
,CC[C@H](C)[C@H](NC(=O)[C@@H]1CCCN1C(=O)CNC(=O)[C@H](Cc1ccccc1)NC(=O)[C@H](CC(N)=O)NC(=O)[C@H](CC(N)=O)NC(=O)[C@H](CO)NC(=O)[C@H](CO)NC(=O)[C@H](Cc1c[nH]cn1)NC(=O)C(C)(C)NC(=O)[C@H](CC(C)C)NC(=O)[C@H](Cc1ccccc1)NC(=O)[C@H](CC(N)=O)NC(=O)[C@H](C)NC(=O)[C@H](CC(C)C)NC(=O)[C@H](CCCNC(=N)N)NC(=O)[C@H](CCC(N)=O)NC(=O)[C@@H](NC(=O)[C@H](C)NC(=O)[C@@H]1CSSC[C@H](NC(=O)[C@@H](N)CCCCNC(=O)CC[C@H](NC(=O)CCCCCCCCCCCCCCCCC(=O)O)C(=O)O)C(=O)N[C@@H](CC(N)=O)C(=O)N[C@@H]([C@@H](C)O)C(=O)N[C@@H](C)C(=O)N[C@@H]([C@@H](C)O)C(=O)N1)[C@@H](C)O)C(=O)N[C@@H](CC(C)C)C(=O)N1CCC[C@H]1C(=O)N1CCC[C@H]1C(=O)N[C@H](C(=O)N[C@@H](CC(N)=O)C(=O)N[C@H](C(=O)NCC(=O)N[C@@H](CO)C(=O)N[C@@H](CC(N)=O)C(=O)N[C@H](C(=O)N[C@@H](Cc1ccc(O)cc1)C(N)=O)[C@@H](C)O)C(C)C)[C@@H](C)O [Peptide 149] (H-K([γGlu-C18 diacid])CNTATCATQRLANFL[Aib]HSSNNFGPILPPTNVGSNTY-NH2; disulfide 2-7; N-terminus assumed),31,
<5,"CC[C@H](C)[C@H](NC(=O)[C@@H]1CCCN1C(=O)CNC(=O)[C@H](Cc1ccccc1)NC(=O)[C@H](CC(N)=O)NC(=O)[C@H](CC(N)=O)NC(=O)[C@H](CO)NC(=O)[C@H](CO)NC(=O)[C@H](Cc1c[nH]cn1)NC(=O)[C@@H](NC(=O)[C@H](CC(C)C)NC(=O)[C@H](Cc1ccccc1)NC(=O)[C@H](CC(N)=O)NC(=O)[C@H](C)NC(=O)[C@H](CC(C)C)NC(=O)[C@H](CCCNC(=N)N)NC(=O)[C@H](CCC(N)=O)NC(=O)[C@@H](NC(=O)[C@H](C)NC(=O)[C@@H]1CSSC[C@H](NC(=O)[C@@H](N)CCCCNC(=O)CC[C@H](NC(=O)CCCCCCCCCCCCCCCCC(=O)O)C(=O)O)C(=O)N[C@@H](CC(N)=O)C(=O)N[C@@H]([C@@H](C)O)C(=O)N[C@@H](C)C(=O)N[C@@H]([C@@H](C)O)C(=O)N1)[C@@H](C)O)C(C)C)C(=O)N[C@H](CC(C)C)C(=O)N1CCC[C@H]1C(=O)N1CCC[C@H]1C(=O)N[C@H](C(=O)N[C@@H](CC(N)=O)C(=O)N[C@H](C(=O)NCC(=O)N[C@@H](CO)C(=O)N[C@@H](CC(N)=O)C(=O)N[C@H](C(=O)N[C@@H](Cc1ccc(O)cc1)C(N)=O)[C@@H](C)O)C(C)C)[C@@H](C)O [Peptide 103, K(γE-C18diacid)[CNTATC]ATQRLANFLVHSSNNFGPI(dL)PPTNVGSNTY-amide] (H-K([γGlu-C18 diacid])CNTATCATQRLANFLVHSSNNFGPI[dL]PPTNVGSNTY-NH2; disulfide 2-7; N-terminus assumed)",,
>144,"CC[C@H](C)[C@H](NC(=O)[C@@H]1CCCN1C(=O)CNC(=O)[C@](C)(Cc1ccccc1)NC(=O)[C@H](CC(N)=O)NC(=O)[C@H](CC(N)=O)NC(=O)[C@H](CO)NC(=O)[C@H](CO)NC(=O)[C@H](Cc1c[nH]cn1)NC(=O)[C@H](CCCNC(=N)N)NC(=O)[C@H](CC(C)C)NC(=O)[C@H](Cc1ccccc1)NC(=O)[C@H](CCC(=O)O)NC(=O)[C@H](C)NC(=O)[C@H](CC(C)C)NC(=O)[C@H](CCCNC(=N)N)NC(=O)[C@H](CCC(N)=O)NC(=O)[C@@H](NC(=O)[C@H](C)NC(=O)[C@@H]1CSSC[C@H](NC(=O)CC[C@H](NC(=O)CCCCCCCCCCCCCCCCC(=O)O)C(=O)O)C(=O)N[C@@H](CC(N)=O)C(=O)N[C@@H]([C@@H](C)O)C(=O)N[C@@H](C)C(=O)N[C@@H]([C@@H](C)O)C(=O)N1)[C@@H](C)O)C(=O)N[C@@H](CC(C)C)C(=O)N1CCC[C@H]1C(=O)N1CCC[C@H]1C(=O)N[C@H](C(=O)N[C@@H](CC(N)=O)C(=O)N[C@H](C(=O)NCC(=O)N[C@@H](CO)C(=O)N[C@@H](CC(N)=O)C(=O)N[C@H](C(=O)N[C@@H](Cc1ccc(O)cc1)C(N)=O)[C@@H](C)O)C(C)C)[C@@H](C)O [Peptide 10, C18diacid-γE-[CNTATC]ATQRLAEFLRHSSNN(αMePhe)GPILPPTNVGSNTY-amide] ({C18 diacid-γGlu}-CNTATCATQRLAEFLRHSSNN[αMeF]GPILPPTNVGSNTY-NH2; disulfide 1-6)",,
>144,"CC[C@H](C)[C@H](NC(=O)[C@@H]1CCCN1C(=O)CNC(=O)[C@H](Cc1ccccc1)NC(=O)[C@H](CC(N)=O)NC(=O)C(C)(C)NC(=O)[C@H](CO)NC(=O)[C@H](CO)NC(=O)[C@H](Cc1c[nH]cn1)NC(=O)[C@@H](NC(=O)[C@H](CC(C)C)NC(=O)[C@H](Cc1ccccc1)NC(=O)[C@H](CC(N)=O)NC(=O)[C@H](C)NC(=O)[C@H](CC(C)C)NC(=O)[C@H](CCCNC(=N)N)NC(=O)[C@H](CCC(N)=O)NC(=O)[C@@H](NC(=O)[C@H](C)NC(=O)[C@@H]1CSSC[C@H](NC(=O)[C@H](CCCCN)NC(=O)[C@@H](N)CCCCNC(=O)CC[C@H](NC(=O)CCCCCCCCCCCCCCCCC(=O)O)C(=O)O)C(=O)N[C@@H](CC(N)=O)C(=O)N[C@@H]([C@@H](C)O)C(=O)N[C@@H](C)C(=O)N[C@@H]([C@@H](C)O)C(=O)N1)[C@@H](C)O)C(C)C)C(=O)N[C@@H](CC(C)C)C(=O)N1CCC[C@H]1C(=O)N1CCC[C@H]1C(=O)N[C@H](C(=O)N[C@@H](Cc1c[nH]cn1)C(=O)N[C@H](C(=O)NCC(=O)N[C@@H](CO)C(=O)N[C@@H](CC(N)=O)C(=O)N[C@H](C(=O)N[C@@H](Cc1ccc(O)cc1)C(N)=O)[C@@H](C)O)C(C)C)[C@@H](C)O [Peptide 40, K(γE-C18diacid)K[CNTATC]ATQRLANFLVHSS(Aib)NFGPILPPTHVGSNTY-amide] (H-K([γGlu-C18 diacid])KCNTATCATQRLANFLVHSS[Aib]NFGPILPPTHVGSNTY-NH2; disulfide 3-8; N-terminus assumed)",,
<5,CC[C@H](C)[C@H](NC(=O)[C@@H]1CCCN1C(=O)CNC(=O)[C@H](Cc1ccccc1)NC(=O)[C@H](CC(N)=O)NC(=O)[C@H](CC(N)=O)NC(=O)[C@H](CO)NC(=O)[C@H](CO)NC(=O)[C@H](Cc1c[nH]cn1)NC(=O)[C@@H](NC(=O)[C@H](CC(C)C)NC(=O)[C@H](Cc1ccccc1)NC(=O)[C@H](CC(N)=O)NC(=O)[C@H](C)NC(=O)[C@H](CC(C)C)NC(=O)[C@H](CCCNC(=N)N)NC(=O)[C@H](CCC(N)=O)NC(=O)[C@@H](NC(=O)[C@H](C)NC(=O)[C@@H]1CSSC[C@H](NC(=O)[C@H](CCCCN)NC(=O)CNC(=O)CNC(=O)CNC(=O)CC[C@H](NC(=O)CC[C@H](NC(=O)CCCCCCCCCCCCCCCCC(=O)O)C(=O)O)C(=O)O)C(=O)N[C@@H](CC(N)=O)C(=O)N[C@@H]([C@@H](C)O)C(=O)N[C@@H](C)C(=O)N[C@@H]([C@@H](C)O)C(=O)N1)[C@@H](C)O)C(C)C)C(=O)N[C@@H](CC(C)C)C(=O)N1CCC[C@H]1C(=O)N1CCC[C@H]1C(=O)N[C@H](C(=O)N[C@@H](CC(N)=O)C(=O)N[C@H](C(=O)NCC(=O)N[C@@H](CO)C(=O)N[C@@H](CC(N)=O)C(=O)N[C@H](C(=O)N[C@@H](Cc1ccc(O)cc1)C(N)=O)[C@@H](C)O)C(C)C)[C@@H](C)O [Peptide 4] ({C18 diacid-γGlu-γGlu}-GGGKCNTATCATQRLANFLVHSSNNFGPILPPTNVGSNTY-NH2; disulfide 5-10),,fibril-forming tendency on conjugating pramlintide to a lipid ([1]; as seen in Table 7): increases the fibril-forming tendency
